# PMC10145393, “Virtual Screening Strategy to Identify Retinoic Acid-Related Orphan Receptor γt Modulators” (Molecules, 2023)
# Target: T1, human RORγ hybrids of both isoforms 1 and 2 (RORγt) (Homo sapiens, UniProt P51449)
# T1 sequence (P51449 259-518): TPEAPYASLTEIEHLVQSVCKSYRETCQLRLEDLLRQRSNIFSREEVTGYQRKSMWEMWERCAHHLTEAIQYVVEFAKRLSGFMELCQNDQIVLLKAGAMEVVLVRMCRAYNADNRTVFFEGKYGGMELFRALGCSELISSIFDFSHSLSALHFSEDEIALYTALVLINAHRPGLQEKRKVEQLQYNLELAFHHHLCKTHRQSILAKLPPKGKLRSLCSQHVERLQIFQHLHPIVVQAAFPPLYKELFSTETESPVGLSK
# Assay: Human RAR-related Orphan Receptor Gamma Reporter Assay System (Indigo Biosciences)
# Type: cell-based
# Conditions: not given
# Method: The activity of the 28 selected molecules was determined at 5 μM concentration using the Human RAR-related Orphan Receptor Gamma Reporter Assay System in a 96-well format (Indigo Biosciences, State College, PA, USA). The assay utilizes human reporter cells designed to express high levels of human RORγ hybrids of both isoforms 1 and 2 and is capable of quantifying inverse agonism and agonism. […] Concentrations of the tested molecules varied from 10 µM to 8 nM, using 1/3-fold decrements within the range of 6 µM to 8 nM. Otherwise, the kit protocol was followed, and the analysis was done similarly as in a prior study.
row,Compound,IC50 [µM]
1,COc1cc(C2C(C#N)=C(N)N(Nc3ccccc3)C3=C2C(=O)CC(C)(C)C3)ccc1OCc1cccc(F)c1 (stereo not shown) [Compound 25],2.4
2,COc1cc(C2C(C#N)=C(N)N(Nc3ccccc3)C3=C2C(=O)CC(C)(C)C3)ccc1OCc1ccccc1 (stereo not shown) [Compound 26],3.2

# Same assay, conditions: RORγ reporter assay, concentrations 10 µM to 8 nM; read-out: IC50
row,IC50 [µM],Compound
1,7.3,O=C(O)c1ccc(CN2C(=O)/C(=C/c3cn(Cc4ccc([N+](=O)[O-])cc4)c4ccccc34)S/C2=N/c2ccccc2)cc1 [Compound 15]
2,1.7,Clc1ccccc1COc1cccc(/C=N/Nc2nc(N3CCOCC3)nc(N3CCOCC3)n2)c1 [Compound 9]
3,1.1,COc1ccc(-c2nc3ccccc3c(C(=O)Nc3ccc(S(=O)(=O)Nc4cc(C)on4)cc3)c2C)cc1 [Compound 19]
4,10.7,COc1ccc(Cn2c(-c3ccc(S(=O)(=O)N4CCOCC4)cc3)cs/c2=N\c2ccccc2OC)cc1 [Compound 21]
5,2.3,COc1ccc(C2CC(=O)C3=C(C2)NC(C)=C(C(=O)OC2CCCCC2)C3c2cccc(O)c2)cc1OC (stereo not shown) [Compound 14]
6,9.7,COc1ccc(-c2cc(C(F)(F)F)n3ncc(C(=O)N4CCN(C(c5ccccc5)c5ccccc5)CC4)c3n2)cc1 [Compound 10]
7,2.6,COc1cc(C2C(C(=O)OC3CCCCC3)=C(C)NC3=C2C(=O)CC(c2ccc(OC)c(OC)c2)C3)ccc1O (stereo not shown) [Compound 13]

# Test system: not given
# Assay: not given
# Design: method as in vendor (SPECS)
# Conditions: reported by the vendor ref vendor (SPECS); cited from earlier work
row,Compound,logP
1,O=C(COC(=O)c1ccc(N2C(=O)C3C4c5ccccc5C(c5ccccc54)C3C2=O)cc1)c1cccc([N+](=O)[O-])c1 (stereo not shown) [Compound 17],2.93
2,COc1cc(C(=O)N2CCN(CCN3C(=O)c4cccc5cccc(c45)C3=O)CC2)cc(OC)c1OC [Compound 2],1.69

# Test system: not listed separately
# Assay: Solubility observed in experimental testing
# Conditions: not given
row,solubility,Compound
1,non-soluble,O=C(COC(=O)c1ccc(N2C(=O)C3C4c5ccccc5C(c5ccccc54)C3C2=O)cc1)c1cccc([N+](=O)[O-])c1 (stereo not shown) [Compound 17]
2,non-soluble,COc1cc(C(=O)N2CCN(CCN3C(=O)c4cccc5cccc(c45)C3=O)CC2)cc(OC)c1OC [Compound 2]
